Patent US20260209220A1, “SUBSTITUTED TETRAHYDROPYRROLO-PYRIDINONE COMPOUNDS AND THEIR USE IN TREATING MEDICAL CONDITIONS” (Karuna Therapeutics, Inc., priority 2022, published 2026)
pEC50: −log10 of the molar value.

Experiments:
human M4 receptor = molecular target: T1, human M4 receptor (Homo sapiens, UniProt P08173); experiment: M4 GTPγS PAM assay (CHO-K1 membranes, 35S-GTP binding, with EC20 acetylcholine); type: biochemical; details: with EC20 acetylcholine (40 nM)
T1 construct: expressed in transfected cells; host or cells: CHO-K1 cells (membranes)
T1 sequence (P08173 1-479): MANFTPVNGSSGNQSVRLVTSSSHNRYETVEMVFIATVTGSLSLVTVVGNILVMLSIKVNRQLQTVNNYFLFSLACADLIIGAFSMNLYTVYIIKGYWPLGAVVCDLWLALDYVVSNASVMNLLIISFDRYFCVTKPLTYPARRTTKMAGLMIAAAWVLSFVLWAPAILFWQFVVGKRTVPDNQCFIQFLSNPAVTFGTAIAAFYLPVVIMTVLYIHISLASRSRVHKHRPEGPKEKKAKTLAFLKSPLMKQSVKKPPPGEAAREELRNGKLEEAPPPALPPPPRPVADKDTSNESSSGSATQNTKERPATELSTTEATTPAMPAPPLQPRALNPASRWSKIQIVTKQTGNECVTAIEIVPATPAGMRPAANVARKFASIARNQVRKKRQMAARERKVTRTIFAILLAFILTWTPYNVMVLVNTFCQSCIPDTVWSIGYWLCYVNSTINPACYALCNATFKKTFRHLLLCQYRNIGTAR
Description: The M4 GTPγS PAM method was used. Membranes were prepared for GTPgS binding assays from CHO-K1 cells stably expressing human M4 receptor. Briefly, cells were grown in 5-layer cell culture flasks. Cells were washed with 50 mL of PBS and then dissociated with 0.05% trypsin. Dissociated cells were then collected by centrifugation at 650×g for 8 minutes at 4° C. Pellets were washed again in PBS by centrifugation and resuspended in 30 mL of 20 mM HEPES, 10 mM EDTA, pH 7.4. After sitting on ice for 30 min, membranes were collected by centrifugation at 50000×g for 15′ at 4° C., resuspended in 30 mL of 20 mM HEPES, 0.1 mM EDTA, pH 7.4 and collected again by centrifugation. Pellets were then washed twice by centrifugation in 30 mL of 20 mM HEPES, pH 7.4, and stored at −80° C. until the day of the assay. On the day of the assay, pellets were thawed on ice and resuspended in 1 mL of 20 mM HEPES, pH 7.4, 10 mM MgCl2, 100 mM NaCl using dounce homogenization. Membrane protein concentration is determined by BCA protein assay (Promega, Madison, WI) according to Promega guidelines.
On the day of the assay, serial dilutions of test PAM compounds were brought up in assay buffer (20 mM HEPES, 10 mM MgCl2, 100 mM NaCl) at 4X final assay concentration. […] of membrane homogenates (containing […] of membrane protein) were prepared in assay buffer supplemented with GDP at […] final assay concentration (final assay concentration of GDP is 5 μM for M2 and 0.1 μM for M4) and dispensed into 96 well polypropylene, U-bottom Greiner plates. 25 ml of vehicle or test PAM compound at 4× of final assay concentration diluted in the assay buffer were added to membrane and plates are incubated for 10-15 minutes at room temperature with gentle shaking. Then, […] of EC20 acetylcholine in assay buffer at 4× final assay concentration was added to assay plates (EC20 final assay concentrations was 40 nM for human M4).
Plates were then incubated, with shaking, for an additional 10-15 minutes. […] of 0.4 nM 35S-GTP (Perkin Elmer, Waltham, MA) in assay buffer was added to assay mixtures. The binding reaction is left on the shaker for 1 hour at room temperature. Membranes in assay reactions were then transferred to GF/C filter plates (Unifilter, Perkin Elmer) and washed three times using a FilterMate Harvester (Perkin Elmer) with cold assay buffer containing no GDP. Filter plates were then dried at 40° C. overnight followed by the addition of […] of Beta Plate Scintillation liquid. Plates are top and bottom sealed before being read on TopCount scintillation counter (Perkin Elmer, Waltham, MA).

rM4 receptors = molecular target: T2, rM4 receptors (Rattus norvegicus, UniProt P08485); experiment: Rat M4 PAM PERK assay (CHO cells, TR-FRET, with EC20 acetylcholine); type: cell-based
T2 construct: expressed in transfected cells; host or cells: CHO cells
T2 sequence (P08485 1-478): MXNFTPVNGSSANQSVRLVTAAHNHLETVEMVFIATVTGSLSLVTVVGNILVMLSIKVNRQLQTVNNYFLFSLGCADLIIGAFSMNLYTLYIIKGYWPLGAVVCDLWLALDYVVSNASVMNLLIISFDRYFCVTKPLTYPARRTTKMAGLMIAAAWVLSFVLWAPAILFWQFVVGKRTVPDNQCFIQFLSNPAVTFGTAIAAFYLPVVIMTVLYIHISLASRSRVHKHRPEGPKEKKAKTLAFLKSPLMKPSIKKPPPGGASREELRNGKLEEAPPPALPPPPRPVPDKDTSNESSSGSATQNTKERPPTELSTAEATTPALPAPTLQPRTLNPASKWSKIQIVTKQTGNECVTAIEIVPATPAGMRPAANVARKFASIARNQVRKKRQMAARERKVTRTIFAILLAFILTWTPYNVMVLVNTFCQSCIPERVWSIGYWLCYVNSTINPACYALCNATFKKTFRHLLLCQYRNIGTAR
Summary of the method: (§1)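 CHO cells expressing human or rat M4, serum-starved 4 h, then given compound (10-point, 10 μM top, ½-log) with EC20 acetylcholine (10 nM final) for 5 min at 37 °C. Lysates assayed for phospho-ERK by TR-FRET after 2 h detection at RT.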

hM4 receptors = molecular target: T3, hM4 receptors (Homo sapiens, UniProt P08173); experiment: Human M4 PAM PERK assay (CHO cells, TR-FRET, with EC20 acetylcholine); type: cell-based
T3 construct: expressed in transfected cells; host or cells: CHO cells
T3 sequence (P08173 1-479): T1 sequence (P08173 1-479)
Summary of the method: as §1

Row | Compound | pEC50 (human M4 receptor) | pEC50 (rM4 receptors) | pEC50 (hM4 receptors)
1 | COc1cccc(N2CC(CC(=O)N3Cc4c(C)cc(=O)n(C)c4C3)C2)c1 [Compound I-7] | 6.00 to 6.70 | 6.70 to 7.30 | 6.00 to 6.70
2 | Cc1cc(=O)n(C)c2c1CN(C(=O)CC1CN(c3nc(C4CC4)ns3)C1)C2 [Compound I-35] | 6.70 to 7.30 | 6.70 to 7.30 | 6.70 to 7.30
3 | Cc1cc(=O)n(C)c2c1CN(C(=O)CC1CN(c3cccc(C(F)(F)F)c3)C1)C2 [Compound I-13] | 6.70 to 7.30 | 6.00 to 6.70 | 6.00 to 6.70
4 | Cc1c2c(n(C)c(=O)c1C)CN(C(=O)CC1CN(c3nc(C4CC4)c(C(F)(F)F)s3)C1)C2 [Compound I-65, 6-(2-(1-(4-cyclopropyl-5-(trifluoromethyl)thiazol-2-yl)azetidin-3-yl)acetyl)-1,3,4-trimethyl-1,5,6,7-tetrahydro-2H-pyrrolo[3,4-b]pyridin-2-one] | > 7.30 | 6.00 to 6.70 | 6.00 to 6.70
5 | Cc1c2c(n(C)c(=O)c1Cl)CN(C(=O)CC1CN(c3ccnc(C(F)(F)F)c3)C1)C2 [Compound I-66, 3-Chloro-1,4-dimethyl-6-(2-(1-(2-(trifluoromethyl)pyridin-4-yl)azetidin-3-yl)acetyl)-1,5,6,7-tetrahydro-2H-pyrrolo[3,4-b]pyridin-2-one] | > 7.30 | 6.70 to 7.30 | > 7.30
6 | Cc1cc(=O)n(C)c2c1CN(C(=O)CC1CN(c3cc(F)cc(F)c3)C1)C2 [Compound I-36] | > 7.30 | 6.00 to 6.70 | > 7.30
7 | Cc1c2c(n(C)c(=O)c1C)CN(C(=O)CC1CN(c3ccc(C(C)(C)O)c(F)c3)C1)C2 [Compound I-59] | > 7.30 | 6.70 to 7.30 | > 7.30
8 | Cc1cc(=O)n(C)c2c1CN(C(=O)CC1CN(c3cnc(C(F)(F)F)cn3)C1)C2 [Compound I-26] | < 6.00 | 6.70 to 7.30 | 6.00 to 6.70
9 | Cc1c2c(n(C)c(=O)c1Cl)CN(C(=O)CC1CN(c3ccnc(C(F)(F)F)c3)C1)C2C (stereo not drawn) [Compound I-118, 3-Chloro-1,4,5-trimethyl-6-(2-(1-(2-(trifluoromethyl)pyridin-4-yl)azetidin-3-yl)acetyl)-1,5,6,7-tetrahydro-2H-pyrrolo[3,4-b]pyridin-2-one] | > 7.30 | 6.70 to 7.30 | > 7.30
10 | Cc1cc(=O)n(C)c2c1CN(C(=O)CC1CN(c3ncc(C(F)(F)F)s3)C1)C2 [Compound I-29] | 6.70 to 7.30 | 6.00 to 6.70 | 6.70 to 7.30
11 | Cc1cc(=O)n(C)c2c1CN(C(=O)CC1CN(c3nc(C(F)(F)F)ns3)C1)C2 [Compound I-28] | 6.00 to 6.70 | 6.00 to 6.70 | 6.00 to 6.70
12 | Cc1cc(=O)n(C)c2c1CN(C(=O)CC1CN(c3ccc(C4CC4)cc3)C1)C2 [Compound I-19] | 6.70 to 7.30 | 6.70 to 7.30 | 6.00 to 6.70
13 | Cc1cc(=O)n(C)c2c1CN(C(=O)CC1CN(c3cccc(F)c3C)C1)C2 [Compound I-33] | 6.00 to 6.70 | 6.00 to 6.70 | 6.70 to 7.30
14 | Cc1cc(=O)n(C)c2c1CN(C(=O)CC1CN(c3cnnc(C(F)(F)F)c3)C1)C2 [Compound I-30] | 6.00 to 6.70 | 6.70 to 7.30 | 6.70 to 7.30
